Values joined by “and” are separate entries in the source; they are usually repeats but may differ in a detail not shown here. Equal values may be shown once. Inconclusive results and toxic doses are left out. No stated cut-off is given here; in the data, active means T/C of 150% or more; inactive means T/C below 125%.
Tested on: L1210 leukemia ip in BDF1 mice, survival T/C
Assay: NCI In Vivo Anticancer Drug Screen. Data for tumor model L1210 Leukemia (intraperitoneal) in B6D2F1 (BDF1) mice
Conditions: endpoint: mean survival time, higher = longer survival
Summary of the method: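 Transplanted-tumor mice were given test agent; controls received vehicle only. Survival readings from the two groups were divided (treated over control).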

[1] = dose: 25.0 mg/kg/injection, schedule: Q01DX009 (ip), vehicle: saline with Tween-80
[2] = dose: 50.0 mg/kg/injection, schedule: Q01DX009 (ip), vehicle: saline with Tween-80
[3] = dose: 100.0 mg/kg/injection, schedule: Q01DX001 (ip), vehicle: saline with Tween-80
[4] = dose: 100.0 mg/kg/injection, schedule: Q01DX001 (ip), vehicle: saline
[5] = dose: 100.0 mg/kg/injection, schedule: Q04DX003 (ip), vehicle: saline with Tween-80
[6] = dose: 200.0 mg/kg/injection, schedule: Q01DX001 (ip), vehicle: saline with Tween-80
[7] = dose: 200.0 mg/kg/injection, schedule: Q01DX001 (ip), vehicle: saline
[8] = dose: 200.0 mg/kg/injection, schedule: Q04DX003 (ip), vehicle: saline with Tween-80
[9] = dose: 400.0 mg/kg/injection, schedule: Q01DX001 (ip), vehicle: saline with Tween-80
[10] = dose: 100.0 mg/kg/injection, schedule: Q01DX009 (ip), vehicle: saline with Tween-80
[11] = dose: 200.0 mg/kg/injection, schedule: Q01DX009 (ip), vehicle: saline with Tween-80
[12] = dose: 100.0 mg/kg/injection, schedule: Q04DX003 (ip), vehicle: Klucel (hydroxypropylcellulose) (HPC)
[13] = dose: 200.0 mg/kg/injection, schedule: Q04DX003 (ip), vehicle: Klucel (hydroxypropylcellulose) (HPC)
[14] = dose: 400.0 mg/kg/injection, schedule: Q01DX009 (ip), vehicle: saline with Tween-80
[15] = dose: 400.0 mg/kg/injection, schedule: Q04DX003 (ip), vehicle: Klucel (hydroxypropylcellulose) (HPC)
[16] = dose: 100.0 mg/kg/injection, schedule: Q01DX009 (ip), vehicle: Klucel (hydroxypropylcellulose) (HPC)
[17] = dose: 200.0 mg/kg/injection, schedule: Q01DX009 (ip), vehicle: Klucel (hydroxypropylcellulose) (HPC)
[18] = dose: 400.0 mg/kg/injection, schedule: Q04DX003 (ip), vehicle: saline with Tween-80
[19] = dose: 400.0 mg/kg/injection, schedule: Q01DX009 (ip), vehicle: Klucel (hydroxypropylcellulose) (HPC)

Measured: T/C

Cc1ccc(Cl)cc1NC(=O)N1C(C)CCCC1C (configuration not stated)
inactive: [1] 94 % of control and 110 % of control | [2] 106 % of control and 108 % of control | dose: 50.0 mg/kg/injection, schedule: Q04DX003 (ip), vehicle: saline with Tween-80 100 % of control | [3] 101 % of control and 118 % of control | [4] 102 % of control | dose: 100.0 mg/kg/injection, schedule: Q04DX002 (ip), vehicle: saline with Tween-80 95 % of control and 89 % of control | [5] 104 % of control | [6] 101 % of control and 110 % of control | [7] 108 % of control | dose: 200.0 mg/kg/injection, schedule: Q04DX002 (ip), vehicle: saline with Tween-80 93 % of control and 106 % of control | [8] 109 % of control | [9] 101 % of control | dose: 400.0 mg/kg/injection, schedule: Q04DX002 (ip), vehicle: saline with Tween-80 102 % of control

COc1ccc(/C=N/NC(=O)c2ccc(Cl)cc2Cl)cc1OC
inactive: [2] 103 % of control | [10] 88 % of control | [11] 92 % of control

COc1cc(C)ccc1C(=O)c1ccc(C)cc1OC
inactive: [3] 100 % of control | [10] 98 % of control | [12] 86 % of control | [6] 100 % of control | [11] 92 % of control | [13] 93 % of control | [9] 92 % of control | [14] 103 % of control | [15] 93 % of control

COc1ccc2nc(C)c(COC(C)=O)cc2c1
inactive: dose: 100.0 mg/kg/injection, schedule: Q04DX003 (ip), vehicle: saline 100 % of control | dose: 200.0 mg/kg/injection, schedule: Q04DX003 (ip), vehicle: saline 98 % of control | dose: 400.0 mg/kg/injection, schedule: Q04DX003 (ip), vehicle: saline 105 % of control

Nc1cc([N+](=O)[O-])ccc1Cl
inactive: [16] 99 % of control | [12] 102 % of control | [17] 101 % of control | [13] 102 % of control | [15] 103 % of control

O=C(/C=C/c1ccccc1)NC(=S)Nc1cccc2ccccc12
inactive: [1] 96 % of control and 90 % of control | [2] 94 % of control | [3] 93 % of control | dose: 100.0 mg/kg/injection, schedule: Q04DX002 (ip), vehicle: alcohol 87 % of control | [5] 86 % of control | [6] 97 % of control | dose: 200.0 mg/kg/injection, schedule: Q04DX002 (ip), vehicle: alcohol 97 % of control | [8] 100 % of control | [9] 93 % of control | dose: 400.0 mg/kg/injection, schedule: Q04DX002 (ip), vehicle: alcohol 93 % of control | [18] 105 % of control

C1CC(CCN2CCOCC2)CCN1
inactive: [4] 98 % of control | [7] 107 % of control | dose: 400.0 mg/kg/injection, schedule: Q01DX001 (ip), vehicle: saline 105 % of control

CCC(Cc1c[nH]c2ccccc12)[N+](=O)[O-] (configuration not stated)
inactive: [16] 104 % of control | [17] 111 % of control | [19] 113 % of control

COc1cc(NS(=O)(=O)c2ccccc2)ccc1C
inactive: [16] 92 % of control | [12] 97 % of control | [17] 91 % of control | [13] 90 % of control | [19] 91 % of control | [15] 87 % of control

O=C(COc1ccc(Cl)c(Cl)c1)NCCc1cc[n+](Cc2ccc(Cl)c(S(=O)(=O)F)c2)cc1
inactive: dose: 100.0 mg/kg/injection, schedule: Q01DX001 (ip), vehicle: Klucel (hydroxypropylcellulose) (HPC) 96 % of control | dose: 200.0 mg/kg/injection, schedule: Q01DX001 (ip), vehicle: Klucel (hydroxypropylcellulose) (HPC) 94 % of control

CCC(=O)OC1(c2ccccc2)CCN(CCC(=O)c2ccccc2)CC1
inactive: dose: 25.0 mg/kg/injection, schedule: Q04DX003 (ip), vehicle: Klucel (hydroxypropylcellulose) (HPC) 103 % of control | dose: 50.0 mg/kg/injection, schedule: Q04DX003 (ip), vehicle: Klucel (hydroxypropylcellulose) (HPC) 101 % of control | [12] 95 % of control and 98 % of control

COC1OC(COC(=O)c2ccccc2)C(OC(=O)c2ccccc2)C1OC(=O)c1ccccc1 (configuration not stated)
inactive: [5] 101 % of control | [8] 92 % of control | [18] 90 % of control

CCC(N)c1ccc2c3c(cccc13)CC2 (configuration not stated)
inactive: [10] 88 % of control | [5] 93 % of control | [11] 90 % of control | [8] 90 % of control | [14] 93 % of control | [18] 90 % of control

Cc1ccc(NC(=S)/C(=C(/[O-])c2ccc([N+](=O)[O-])cc2)[n+]2ccccc2)c(C)c1
inactive: [16] 101 % of control | [17] 97 % of control | [19] 95 % of control

CSc1ccc(OC(=O)Nc2ccccc2F)cc1
inactive: [2] 108 % of control | [10] 103 % of control

CCOC(=O)CCN(CC(C)C)C(=S)Nc1ccccc1
inactive: dose: 100.0 mg/kg/injection, schedule: Q01DX Z (ip), vehicle: methylcellulose (MC) 93 % of control

Cc1cc(N(CCCOS(C)(=O)=O)CCCOS(C)(=O)=O)ccc1C=Nc1ccc(-c2csc(COc3ccc(Cl)cc3Cl)n2)cc1
inactive: [10] 91 % of control | [11] 96 % of control | [14] 94 % of control

COc1ccc(Cc2ccc(O)cc2)cc1
inactive: dose: 100.0 mg/kg/injection, schedule: Q04DX003 (ip), vehicle: other 90 % of control | dose: 200.0 mg/kg/injection, schedule: Q04DX003 (ip), vehicle: other 93 % of control | dose: 400.0 mg/kg/injection, schedule: Q04DX003 (ip), vehicle: other 98 % of control

CCCCOC(=O)c1nc[nH]c1[N+](=O)[O-]
inactive: dose: 100.0 mg/kg/injection, schedule: Q01DX001 (ip), vehicle: other 93 % of control | dose: 200.0 mg/kg/injection, schedule: Q01DX001 (ip), vehicle: other 101 % of control | dose: 400.0 mg/kg/injection, schedule: Q01DX001 (ip), vehicle: other 101 % of control

O=C(OC1CC2CC1C1CCCCC21)c1ccc([N+](=O)[O-])cc1 (configuration not stated)
inactive: dose: 50.0 mg/kg/injection, schedule: Q01DX001 (ip), vehicle: carboxymethylcellulose (CMC) 94 % of control | dose: 100.0 mg/kg/injection, schedule: Q01DX001 (ip), vehicle: carboxymethylcellulose (CMC) 105 % of control | dose: 200.0 mg/kg/injection, schedule: Q01DX001 (ip), vehicle: carboxymethylcellulose (CMC) 100 % of control | dose: 400.0 mg/kg/injection, schedule: Q01DX001 (ip), vehicle: carboxymethylcellulose (CMC) 96 % of control

Cc1ccc(C(=O)N/N=C/c2ccc(Cl)cc2Cl)cc1
inactive: dose: 100.0 mg/kg/injection, schedule: Q04DX002 (ip), vehicle: Klucel (hydroxypropylcellulose) (HPC) 100 % of control | dose: 200.0 mg/kg/injection, schedule: Q04DX002 (ip), vehicle: Klucel (hydroxypropylcellulose) (HPC) 95 % of control | dose: 400.0 mg/kg/injection, schedule: Q04DX002 (ip), vehicle: Klucel (hydroxypropylcellulose) (HPC) 95 % of control

COc1ccc2ncc(C)c(CO)c2c1
inactive: dose: 44.0 mg/kg/injection, schedule: Q01DX009 (ip), vehicle: Klucel (hydroxypropylcellulose) (HPC) 96 % of control | dose: 66.0 mg/kg/injection, schedule: Q01DX009 (ip), vehicle: Klucel (hydroxypropylcellulose) (HPC) 98 % of control | dose: 150.0 mg/kg/injection, schedule: Q01DX009 (ip), vehicle: Klucel (hydroxypropylcellulose) (HPC) 101 % of control | [17] 102 % of control | [19] 102 % of control

From PubChem BioAssay AID248 (DTP/NCI, 2004)
